# From patent US10959998B2, “Pharmaceutical use and pharmaceutical composition of pyrroloquinoline quinine, its derivatives and/or its salts” (priority 2015, dated 2021)
# Experiments:
# [1] = test system: ectopic endometrial foci; assay: Endometriosis rat model, weight of transplanted foci; format: in vivo, SD rats; details: for weight of ectopic endometrial foci compared with the control group / weight of cysts after treatment (mg) Mean ± SD: Example 5, rats; for weight of cysts after treatment (mg) Mean ± SD: water feeding 4 week, PQQ 1 mg/kg, NAC 10 mg/kg, Resveratro 10 mg/kg, n=9
# [2] = test system: EM lesions; details: cited from earlier work; for lesion of EM model mice: Ricci et al. 2013, by antioxidation effect
# [3] = test system: ectopic endometrial stromal cells; assay: MTT cell proliferation of ectopic endometrial stromal cells; format: cell-based, human
# Experimental: Endometrial tissues were surgically isolated from patients with chocolate cyst of ovary, washed 2 to 3 times with PBS supplemented with antibiotics in ultra-clean cabinet, and cut into tiny pieces (about 1 mm^3 in size) with aseptic scissors. The tissues were digested with 1 mg/ml collagenase type I for 30 to 90 min at 37° C., and continually digested with Dnase I (final concentration of 15 U/ml, 2% Dnase I) for another 30 min. The digested tissues were filtered thorough 60-mesh stainless steel filter cell strainer to remove the undigested cell tissues, and were further filtered with 200- or 400-mesh strainer. The filtered solution was centrifuged at 1000 rpm for 5 min. After removing the supernatants, the cells were washed once with culture medium compounded by DMEM/F12 (1:1 v/v) and 10% fetal bovine serum, re-suspended in the culture medium, and seeded in 6-well tissue culture plate or T25 tissue culture flasks with an appropriate density. After 24 hours incubation, the culture medium was changed to remove the non-adherent blood cells, endothelial cells, macrophages and other miscellaneous cells. After primary human endometrial stromal cells were grown to reach 90% confluence, the cells were digested with 0.25% trypsin for 4 to 6 min, and then subcultured with a split ratio of 1:2 to 1:3. Vimentin which expresses specifically in stromal cells was detected by immuno-fluorescence to measure the cell purity. The cells of purity >95% were used in the following experiments. Primary ectopic endometrial stromal cells of human were subcultured and the subcultured cells of the 3th to 6th passages were chosen as experimental subjects. The cells in logarithmic growth phase were […] and incubated in the cell culture plate at a density of 50%˜60% (i.e. 2×10^4 cells/well). After growing adherent on the wall for 24 hours, the cultured cells were divided into groups and each group was given different doses of PQQ. 20 μL MTT (5 mg/ml in PBS, pH=7.4) was added to each well at indicated time points. The cells were incubated in an incubator at 37° C. in a 5% CO2 atmosphere for 4 h. At the end of incubation, the culture supernatant in each cell was carefully aspirated away. 150 μL DMSO was added to each well. Then the wells were shaken with Orbital shaker for 10 min. The absorbance of each cell was detected at wavelength 490 nm. Finally, the cell proliferation curve was drawn. Primary ectopic endometrial stromal cells were cultured and the subcultured cells of the 3th to 6th passage were chosen as experimental subjects. The cells in logarithmic growth phase were […] and incubated in the cell culture plate at a of 50%˜60% (e.g. 2×10^4 cells/well). The cells grew adhering to the wall for 24 hours before being treated with drugs. The cells were divided into groups and each group was given different dose of PQQ. At indicated time point, 20 μL […] (5 mg/ml in PBS, pH=7.4) was added to every well. The cells were then incubated in an incubator at 37° C. in a 5% CO2 atmosphere for 4 h. After terminating incubation, the culture supernatant in each cell was carefully aspirated away, but formazan crystals should not be aspirated away in any case. 150 μL DMSO was added to each well respectively. All the wells were shaken with Orbital shaker for 10 min to make the crystals adequately solubilized. The absorbance of each cell was detected at wavelength 490 nm. Finally, the cell proliferation curve was drawn.
# [4] = test system: cysts of EM patients; details: after three months of treatment with NAC; cited from earlier work
# [5] = test system: ectopic endometrial stromal cells; details: NAC 10 mM, report of Ngo et al. 2009; cited from earlier work
# [6] = test system: infiltration of endometrial stroma and glands into myometrium; assay: Adenomyosis mouse model created with tamoxifen, pathological section; format: in vivo, mice
# Experimental: Disodium salt of PQQ was used in the present experiment (PQQ-Na2, donated by MITSUBISHI gas chemical (MGC), Japan). The salt was dissolved with water and the concentration of its mother liquid is 1 mg/mL.
# In the present Example, the mouse model of adenomyosis was created with tamoxifen. This method is easy to operate, the rate of molding can reach 100%, and the difference between the model mouses caused by the operation is small. At 2˜5 days after birth (the birth day was the first day), the mice were fed with 5 ul/(g·BW) peanut oil/lecithin/condensed milk mixture (volume ratio 2:0.2:3) supplemented with 0.2 mg/ml tamoxifen (produced by shanghai Fudan Fuhua Pharmaceutical Co, Ltd.) by drip feeding. In the negative control group, the mice were fed with peanut oil/lecithin/condensed milk mixture (volume ratio 2:0.2:3), with no tamoxifen added. All the mice were exposed to light for 12 h/day, and were reared by maternal lactation during 1-21 days of age. After 22 days of birth, the mice were separated with mother mice, and the female mice were reserved for the next experiment.
# After 3 months, 7 model mice were killed after anesthesia. […] The remaining model mice were divided into 5 groups with 20 mice in each group. One of the groups was chosen as model control group (fed with normal water). The drinking water for other group were supplemented with PQQ (1 mg/kg/day), NAC (10 mg/kg/day), PQQ (1 mg/kg/day) +NAC (10 mg/kg/day) (denoted by P+N (H)); PQQ (0.2 mg/kg/day) +NAC (5 mg/kg/day) (denoted by P+N (L)).
# After treatment with drugs for 4 weeks, the mice were killed by anesthesia. The uterus was surgically removed and the invasion of endometria into myometrium was analyzed by the pathological section.
# [7] = 4 weeks in drinking water, PQQ (disodium salt) 1 mg/kg/day, NAC 10 mg/kg/day, P+N (H) 1+10, P+N (L) 0.2+5 mg/kg/day
Compound,weight of ectopic endometrial foci compared with the control group ([1]; after 4 weeks treatment),weight of cysts after treatment (mg) Mean ± SD [1] [mg],lesion of EM model mice [2],cell proliferation ([3]; NAC 10 um alone),cell proliferation ([3]; NAC 100 um alone),cysts sizes within EM patients [4],proliferation of ectopic endometrial stromal cells [5],"weight of ectopic cys after treatment (mg) Mean ± SD ([1]; Example 7, rats, 4 weeks in drinking water, PQQ (disodium salt) 1 mg/kg/day, NAC 10 mg/kg/day, P+N (H) 1+10, P+N (L) 0.2+5 mg/kg/day, n=12) [mg]","weight of ectopic cyst compared with model control group ([1]; Example 7, rats, after 4 weeks treatment, PQQ as disodium salt)","infiltration of endometrial glands, positive animals/total animals [6, 7]","infiltration of endometrial stroma, positive animals/total animals [6, 7]","number of animals with infiltration of endometrial stroma and glands compared with model control group ([6]; after 4 weeks treatment, PQQ as disodium salt)","growth of EM lesions ([2]; mouse models of endometriosis, NAC daily dose 1.3 g/kg/day)"
"Oc1ccc(C=Cc2cc(O)cc(O)c2)cc1 [Res, Resveratrol]",no evident difference from that of the control group,122.1 ± 30.7,effectively inhibit the lesion of EM model mice,–,–,–,–,–,–,–,–,–,–
Epigallocatechin-3-gallate [EGCG],–,–,effectively inhibit the lesion of EM model mice,–,–,–,–,–,–,–,–,–,–
"CC(=O)N[C@@H](CS)C(=O)O [NAC, N-acetyl-L-cysteine]",no evident difference from that of the control group,138.1 ± 33.1,–,no evident effect,effectively inhibit the cell proliferation,cysts sizes within EM patients were reduced significantly,inhibit the proliferation of ectopic endometrial stromal cells,142.1 ± 13.4,no obvious difference with the control group,18/20,19/20,no obvious difference with the control group,significantly inhibit the growth of EM lesions
